Experimental data as given in ChEMBL document CHEMBL1133894, “Design and synthesis of a highly selective EP4-receptor agonist. Part 2: 5-thia and 9beta-haloPG derivatives with improved stability” (Bioorg Med Chem Lett, 2001).

Assays:
[1] = biological target: T1, Prostaglandin E2 receptor EP3 subtype (Mus musculus, UniProt P30557); test: Affinity for mouse Prostanoid EP3 receptor expressed in CHO cells; type: cell-based
T1 sequence (P30557 whole entry): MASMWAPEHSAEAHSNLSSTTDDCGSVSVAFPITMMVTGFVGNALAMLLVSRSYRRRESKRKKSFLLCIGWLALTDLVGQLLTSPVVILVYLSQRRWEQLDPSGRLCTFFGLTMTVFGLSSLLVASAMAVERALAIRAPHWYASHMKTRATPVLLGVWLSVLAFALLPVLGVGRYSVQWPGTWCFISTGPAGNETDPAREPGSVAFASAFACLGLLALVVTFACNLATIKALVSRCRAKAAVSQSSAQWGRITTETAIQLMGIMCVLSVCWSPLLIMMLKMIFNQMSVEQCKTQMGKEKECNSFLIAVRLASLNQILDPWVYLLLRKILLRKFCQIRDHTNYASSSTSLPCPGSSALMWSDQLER

[2] = biological target: T2, Prostaglandin E2 receptor EP4 subtype (Mus musculus, UniProt P32240); test: Affinity for mouse Prostanoid EP4 receptor expressed in CHO cells; type: cell-based
[3] = biological target: T3, Prostaglandin E2 receptor EP1 subtype (Mus musculus, UniProt P35375); test: Affinity for mouse Prostanoid EP1 receptor expressed in CHO cells; type: cell-based
T3 sequence (P35375 whole entry): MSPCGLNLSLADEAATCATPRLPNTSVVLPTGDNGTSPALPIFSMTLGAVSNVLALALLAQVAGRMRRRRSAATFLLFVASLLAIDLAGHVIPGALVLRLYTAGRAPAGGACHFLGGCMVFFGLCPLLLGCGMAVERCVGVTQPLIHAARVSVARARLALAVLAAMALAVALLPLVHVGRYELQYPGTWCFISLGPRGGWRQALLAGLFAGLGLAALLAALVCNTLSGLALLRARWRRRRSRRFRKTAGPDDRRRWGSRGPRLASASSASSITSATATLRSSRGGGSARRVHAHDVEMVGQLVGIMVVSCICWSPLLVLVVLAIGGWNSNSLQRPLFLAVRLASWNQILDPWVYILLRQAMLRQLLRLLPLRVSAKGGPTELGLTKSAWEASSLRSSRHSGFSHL

[4] = biological target: Prostaglandin E2 receptor EP2 subtype (Mus musculus, UniProt Q62053); test: Affinity for mouse Prostanoid EP2 receptor expressed in CHO cells; type: cell-based
[5] = biological target: Prostacyclin receptor (Homo sapiens, UniProt P43119); test: Affinity for human Prostanoid IP receptor expressed in CHO cells; type: cell-based
[6] = biological target: T2, Prostaglandin E2 receptor EP4 subtype; test: Effective concentration for increased intracellular c-AMP production by mouse Prostanoid EP4 receptor; type: functional, cell-based
[7] = system: Rattus norvegicus; test: Suppression of production of plasma TNF-alpha after intravenous infusion of 10, 30, 100 and 300 ng/kg/min; significant; type: functional, organism-based
[8] = species: Rattus norvegicus; test: Stimulation of Uterine motility which mediates the EP3-receptor in rats; type: functional

T2 sequence (P32240 whole entry): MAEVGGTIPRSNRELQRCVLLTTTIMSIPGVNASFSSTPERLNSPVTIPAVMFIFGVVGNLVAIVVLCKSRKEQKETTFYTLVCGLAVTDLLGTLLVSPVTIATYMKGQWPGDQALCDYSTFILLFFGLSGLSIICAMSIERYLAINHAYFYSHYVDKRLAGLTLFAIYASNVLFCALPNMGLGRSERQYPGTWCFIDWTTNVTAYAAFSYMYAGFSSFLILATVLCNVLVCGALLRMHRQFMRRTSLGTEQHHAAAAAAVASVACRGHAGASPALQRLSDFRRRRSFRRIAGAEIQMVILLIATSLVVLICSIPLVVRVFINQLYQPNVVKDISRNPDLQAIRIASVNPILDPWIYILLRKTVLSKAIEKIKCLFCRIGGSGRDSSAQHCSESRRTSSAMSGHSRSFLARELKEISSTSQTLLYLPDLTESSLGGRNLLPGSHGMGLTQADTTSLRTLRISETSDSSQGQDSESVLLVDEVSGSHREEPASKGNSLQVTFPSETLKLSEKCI
Prostacyclin receptor, sequence (P43119 whole entry): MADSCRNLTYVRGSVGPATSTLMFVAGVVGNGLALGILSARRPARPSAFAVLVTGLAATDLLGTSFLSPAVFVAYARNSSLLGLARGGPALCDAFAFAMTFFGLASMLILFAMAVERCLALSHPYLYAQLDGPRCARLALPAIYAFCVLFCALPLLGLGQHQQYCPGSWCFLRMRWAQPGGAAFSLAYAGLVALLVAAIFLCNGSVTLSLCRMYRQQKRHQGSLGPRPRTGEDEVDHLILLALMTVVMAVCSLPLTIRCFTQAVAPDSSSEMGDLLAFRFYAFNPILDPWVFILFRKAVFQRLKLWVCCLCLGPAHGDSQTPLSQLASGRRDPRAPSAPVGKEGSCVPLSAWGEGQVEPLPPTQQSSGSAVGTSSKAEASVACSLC
Prostaglandin E2 receptor EP2 subtype, sequence (Q62053 whole entry): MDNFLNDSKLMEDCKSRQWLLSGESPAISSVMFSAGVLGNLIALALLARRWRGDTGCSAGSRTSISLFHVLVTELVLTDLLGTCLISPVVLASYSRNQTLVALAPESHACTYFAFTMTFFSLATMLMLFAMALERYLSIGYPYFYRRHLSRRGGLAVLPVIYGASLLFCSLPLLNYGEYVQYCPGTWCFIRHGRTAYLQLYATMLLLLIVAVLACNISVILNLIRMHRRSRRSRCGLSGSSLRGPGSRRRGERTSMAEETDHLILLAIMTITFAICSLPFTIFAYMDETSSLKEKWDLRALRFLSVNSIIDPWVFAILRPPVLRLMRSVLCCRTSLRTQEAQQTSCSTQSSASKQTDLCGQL

| Ki [1] [nM] | Ki [2] [nM] | Ki [3] [nM] | Ki [4] [nM] | Ki [5] [nM] | EC50 [6] [nM] | SMILES | Supression [7] | ED50 [8] [mg/kg] |
| --- | --- | --- | --- | --- | --- | --- | --- | --- |
| 56 | 0.7 | > 10000 | 620 | > 10000 | 1.6 | COCc1cccc(C[C@H](O)/C=C/[C@H]2[C@H](O)CC(=O)[C@@H]2CCSCCCC(=O)O)c1 | – | – |
| 2 | 8.7 | 95 | 91 | 1400 | 1000 | CCCCC[C@H](O)/C=C/[C@H]1[C@H](O)CC(=O)[C@@H]1CSCCCCC(=O)O | – | – |
| 2200 | 7.7 | 3100 | 290 | > 10000 | 44 | Cc1cc(C[C@H](O)/C=C/[C@@H]2[C@@H](C/C=C/CCCC(=O)O)[C@H](Cl)C[C@H]2O)ccc1O | – | – |
| – | 32 | – | 3100 | > 10000 | 270 | COCc1cccc(C[C@H](O)/C=C/[C@@H]2[C@@H](CCSCCCC(=O)O)[C@H](F)C[C@H]2O)c1 | – | – |
| 1.2 | 2.1 | 200 | 49 | > 10000 | 46 | CCCCC[C@H](O)/C=C/[C@H]1[C@H](O)CC(=O)[C@@H]1CCCCSCC(=O)O | – | – |

Further lines, the compound ahead of its results:

| SMILES | Ki [1] [nM] | Ki [2] [nM] | Ki [3] [nM] | Ki [4] [nM] | Ki [5] [nM] | EC50 [6] [nM] | Supression [7] | ED50 [8] [mg/kg] |
| --- | --- | --- | --- | --- | --- | --- | --- | --- |
| COCc1cccc(C[C@H](O)/C=C/[C@@H]2[C@@H](C/C=C/CCCC(=O)O)[C@H](Cl)C[C@H]2O)c1 | 92 | 0.5 | 980 | 12 | > 10000 | 3.3 | – | – |
| CCCCC[C@H](O)/C=C/[C@H]1[C@H](O)CC(=O)[C@@H]1CCSCCCC(=O)O | 1.9 | 0.5 | 52 | 75 | 750 | 3.6 | – | – |
| COCc1cccc(C[C@H](O)/C=C/[C@H]2[C@H](O)CC(=O)[C@@H]2CCSCCCC(=O)OC)c1 [RIVENPROST] | – | – | – | – | – | – | significant | > 300 |
| COCc1cccc(C[C@H](O)/C=C/[C@@H]2[C@@H](C/C=C/CCCC(=O)O)[C@H](F)C[C@H]2O)c1 | 94 | 3.4 | 1700 | 58 | > 10000 | 14 | – | – |
| CCCCC[C@H](O)/C=C/[C@H]1[C@H](O)CC(=O)[C@@H]1CCCSCCC(=O)O | 3.7 | 11 | 27 | 340 | 920 | 1000 | – | – |
| COCc1cccc(C[C@H](O)/C=C/[C@@H]2[C@@H](CCCCCCC(=O)O)[C@H](Cl)C[C@H]2O)c1 | 740 | 2.7 | 5400 | 370 | > 10000 | 160 | – | – |
| CCCCC[C@H](O)/C=C/[C@H]1[C@H](O)CC(=O)[C@@H]1CCCCCCC(=O)O [ALPROSTADIL] | – | 3.1 | 6 | 22 | > 10000 | 3.6 | – | – |
| Cc1cc(C[C@H](O)/C=C/[C@H]2[C@H](O)CC(=O)[C@@H]2CCSCCCC(=O)O)ccc1O | – | 4.9 | – | 7400 | > 10000 | 20 | – | – |
